Measurements: patent US5354748A, “Oral antibacterial compositions and method for the improvement of gastrointestinal absorption of penem or carbapenem antibiotics” (Suntory Limited, priority 1991, dated 1994)
Where two headings read alike, the source gives them in different places.

Assays:
[1] = Oral absorption of penem in rats with simultaneous administration of cilastatin (Example 3); format: in vivo, Sprague-Dawley male rats; conditions: rat; for AUC at 2 h / Cmax / bioavailability: plasma, po, 57.1 mg/kg, oral 57.1 mg (titer)/Kg; for bioavailability: read-out: Absorption (Oral Absorption Percentage A)
Protocol: Those compositions were separately and orally administered to seven-week-old, Sprague-Dawley male rats to give a dose of 57.1 mg (titer)/Kg in terms of the penem carboxylate. The blood was drawn from the femoral artery via a polyethylene catheter over 2.0 hours after the administration.

[2] = Plasma concentration of penem in rats, oral penem with oral cilastatin (Example 5); format: in vivo, Sprague-Dawley male rats; conditions: rat; for AUC at 1.5 h / Cmax: plasma, po, 57.1 mg/kg, oral 57.1 mg (titer)/Kg; for Cmax: read-out: Highest concentration in plasma
Protocol: (§1) Seven-week-old Sprague-Dawley male rats were orally administered with 57.1 mg (titer)/Kg of sodium (1'R,2"R,5R,6S)-6-(1'-hydroxyethyl)-2-(2"-tetrahydrofuranyl)penem-3-carboxylate 2.5 hydrate. At the same time, cilastatin was orally administered at 7.17, 0.717 or 0.0717 mg/Kg. The blood was collected during the period of from 0.1 to 1.5 hours after the administration. The concentrations of the free acid of the penem in plasma samples were measured by high performance liquid chromatography (HPLC) to determine the highest concentration in plasma and the area under the plasma concentration:time curve (AUC).

[3] = Plasma concentration of penem in rats, oral penem with oral N-acetyl-L-cysteine (Example 8); format: in vivo, Sprague-Dawley male rats; conditions: rat, 57.1 mg/kg, oral 57.1 mg (titer)/Kg
Protocol: Seven-week-old Sprague-Dawley male rats were orally administered with 57.1 mg (titer)/Kg of sodium (1'R,2"R,5R,6S)-6-(1'-hydroxyethyl)-2-(2"-tetrahydrofuranyl)penem-3-carboxylate 2.5 hydrate. At the same time, N-acetyl-L-cysteine was orally administered at 57.1 mg/Kg. The blood was collected during the period of from 0.1 to 2.0 hours after the administration.
The concentrations of the free acid of the penem in plasma samples were measured by high performance liquid chromatography (HPLC) to determine the highest concentration in plasma and the area under the plasma concentration: time curve (AUC).

[4] = Plasma concentration of penem in rats, oral penem with oral glutathione (Example 6); format: in vivo, Sprague-Dawley male rats; conditions: rat; for AUC at 2 h / Cmax: plasma, po, 57.1 mg/kg, oral 57.1 mg (titer)/Kg
Protocol: as §1, with “glutathione” for “cilastatin”, “57.1” for “7.17, 0.717”, “5.71” for “0.0717”, “2.0” for “1.5”

[5] = Plasma concentration and urinary excretion of penem in dogs, capsules with glutathione (Example 7); format: in vivo; conditions: dog; for AUC at 4 h / Cmax: plasma; for AUC at 4 h / Cmax / dose excreted at 24 h: po, 75 mg, oral capsule 75 mg (titer); for dose excreted at 24 h: urine, read-out: Excretion into urine
in vivo = assay: in vivo; set-up: species or system Sprague-Dawley male rats; conditions: rat, plasma, iv, 11.4 mg/kg, intravenous penem 11.4 mg (titer)/Kg
Protocol: The blood was collected during the period of from 0.1 to 1.5 hours after the administration. The concentrations of the free acid of the penem in plasma samples were measured by high performance liquid chromatography (HPLC) to determine the area under the plasma concentration:time curve (AUC).

[6] = Plasma concentration and urinary excretion of penem in dogs, capsules with glutathione (Example 7); format: in vivo; conditions: dog, po, 75 mg; for AUC at 4 h / Cmax: plasma
Protocol: Namely, the penemcarboxylate and glutathione were mixed in amounts of 75 mg (titer) and 75, 15 or 3.75 mg, respectively, per capsule. The resultant mixed powder was filled in a capsule. Capsules were prepared in the manner described above.

[7] = single administration (penem alone)
[8] = single administration (penem alone), read-out: Highest concentration in plasma
[9] = penem:glutathione molar ratio 11:1
[10] = penem:glutathione molar ratio 11:1, read-out: Highest concentration in plasma

Increase of oral absorption percentage relative to single administration ([1]; oral, cilastatin 1/2000 of the penem carboxylate): 2.5 times
AUC at 2 h ([1]; penem:cilastatin molar ratio 1:1): 25900 ng·h/mL
Cmax ([1]; penem:cilastatin molar ratio 1:1, read-out: Highest concentration in plasma): 12400 ng/mL
bioavailability ([1]; penem:cilastatin molar ratio 1:1, vs AUCiv): 114%
AUC at 2 h ([1]; penem:cilastatin molar ratio 10:1): 19600 ng·h/mL
Cmax ([1]; penem:cilastatin molar ratio 10:1, read-out: Highest concentration in plasma): 12700 ng/mL
bioavailability ([1]; penem:cilastatin molar ratio 10:1, vs AUCiv): 86.3%
AUC at 2 h ([1]; penem:cilastatin molar ratio 100:1): 21100 ng·h/mL
Cmax ([1]; penem:cilastatin molar ratio 100:1, read-out: Highest concentration in plasma): 8680 ng/mL
bioavailability ([1]; penem:cilastatin molar ratio 100:1, vs AUCiv): 93%
AUC at 2 h ([1]; penem:cilastatin molar ratio 300:1): 18300 ng·h/mL
Cmax ([1]; penem:cilastatin molar ratio 300:1, read-out: Highest concentration in plasma): 7890 ng/mL
bioavailability ([1]; penem:cilastatin molar ratio 300:1, vs AUCiv): 80.3%
AUC at 2 h ([1]; penem:cilastatin molar ratio 600:1): 14900 ng·h/mL
Cmax ([1]; penem:cilastatin molar ratio 600:1, read-out: Highest concentration in plasma): 8080 ng/mL
bioavailability ([1]; penem:cilastatin molar ratio 600:1, vs AUCiv): 65.6%
AUC at 2 h ([1]; penem:cilastatin molar ratio 1000:1): 12200 ng·h/mL
Cmax ([1]; penem:cilastatin molar ratio 1000:1, read-out: Highest concentration in plasma): 6890 ng/mL
bioavailability ([1]; penem:cilastatin molar ratio 1000:1, vs AUCiv): 53.7%
AUC at 2 h ([1]; penem:cilastatin molar ratio 2000:1): 10900 ng·h/mL
Cmax ([1]; penem:cilastatin molar ratio 2000:1, read-out: Highest concentration in plasma): 7690 ng/mL
bioavailability ([1]; penem:cilastatin molar ratio 2000:1, vs AUCiv): 48.1%
AUC at 2 h [1, 7]: 4420 ng·h/mL
Cmax [1, 8]: 4810 ng/mL
bioavailability ([1]; single administration (penem alone), vs AUCiv): 19.4%
Increase of AUC relative to single administration ([2]; oral, at each cilastatin dosage (7.17, 0.717, 0.0717 mg/Kg)): 2.8-4.8 times
AUC at 1.5 h ([2]; cilastatin 0 (penem alone)): 4420 ng·h/mL
Cmax ([2]; cilastatin 0 (penem alone)): 4810 ng/mL
AUC at 1.5 h ([2]; cilastatin 0.0717 mg/Kg oral): 12200 ng·h/mL
Cmax ([2]; cilastatin 0.0717 mg/Kg oral): 6890 ng/mL
AUC at 1.5 h ([2]; cilastatin 0.717 mg/Kg oral): 21100 ng·h/mL
Cmax ([2]; cilastatin 0.717 mg/Kg oral): 8680 ng/mL
AUC at 1.5 h ([2]; cilastatin 7.17 mg/Kg oral): 19600 ng·h/mL
Cmax ([2]; cilastatin 7.17 mg/Kg oral): 12700 ng/mL
AUC at 2 h ([3]; penem:N-acetyl-L-cysteine molar ratio 0.6:1): 5240 ng·h/mL
Cmax ([3]; penem:N-acetyl-L-cysteine molar ratio 0.6:1, read-out: Highest concentration in plasma): 6790 ng/mL
AUC at 2 h [3, 7]: 2520 ng·h/mL
Cmax [3, 8]: 3290 ng/mL
Increase of AUC relative to penem alone ([4]; oral, glutathione 1/11 of the penem): 1.2 times
AUC at 2 h ([4]; penem:glutathione molar ratio 1.1:1): 6160 ng·h/mL
Cmax ([4]; penem:glutathione molar ratio 1.1:1, read-out: Highest concentration in plasma): 5840 ng/mL
AUC at 2 h [4, 9]: 5540 ng·h/mL
Cmax [4, 10]: 5030 ng/mL
AUC at 2 h [4, 7]: 4570 ng·h/mL
Cmax [4, 8]: 4340 ng/mL
Increase of AUC relative to single administration ([5]; oral, glutathione 1/110 of the penemcarboxylate): 1.2 times
AUC at 4 h [5, 9]: 25400 ng·h/mL
Cmax [5, 10]: 18000 ng/mL
AUC at 4 h ([5]; penem:glutathione molar ratio 110:1): 21900 ng·h/mL
Cmax ([5]; penem:glutathione molar ratio 110:1, read-out: Highest concentration in plasma): 14700 ng/mL
dose excreted at 24 h ([5]; penem:glutathione molar ratio 11:1, up to 24 hours): 20.7%
dose excreted at 24 h ([5]; penem:glutathione molar ratio 110:1, up to 24 hours): 19.9%
AUC at 1.5 h (in vivo; cilastatin 0 (penem alone)): 7170 ng·h/mL
AUC at 1.5 h (in vivo; cilastatin 0.0717 mg/Kg oral): 6860 ng·h/mL
AUC at 1.5 h (in vivo; cilastatin 0.717 mg/Kg oral): 5670 ng·h/mL
AUC at 1.5 h (in vivo; cilastatin 7.17 mg/Kg oral): 6740 ng·h/mL
AUC at 4 h ([6]; oral capsule 75 mg (titer), penem:glutathione molar ratio 1.1:1): 33700 ng·h/mL
Cmax ([6]; oral capsule 75 mg (titer), penem:glutathione molar ratio 1.1:1, read-out: Highest concentration in plasma): 22700 ng/mL
Cmax ([6]; oral, single administration (penem alone), read-out: Highest concentration in plasma): 11600 ng/mL
AUC at 4 h [6, 7]: 17700 ng·h/mL
dose excreted at 24 h ([6]; urine, oral, single administration (penem alone), up to 24 hours, read-out: Excretion into urine): 16.7%
SMILES: C[C@@H](O)[C@H]1C(=O)N2C(C(=O)O)=C([C@H]3CCCO3)S[C@H]12 [sodium (1'R,2"R,5R,6S)-6-(1'-hydroxyethyl)-2-(2"-tetrahydrofuranyl)penem-3-carboxylate 2.5 hydrate]
